# Experiments:
# [1] = test system: streptozotocin (STZ)-induced diabetic peripheral neuropathic pain rat model (mechanical allodynia); assay: von Frey test of mechanical allodynia in streptozotocin (STZ)-induced diabetic peripheral neuropathic pain rat model; assay type: in vivo, rat (Sprague-Dawley); details: for bending force before administration: day 24, immediately before that day's dose
# Procedure: (§1) Male rats (Sprague-Dawley, 160 to 180 g, Harlan Laboratories, Israel) were purchased and subjected to acclimatization for more than 1 week at an animal laboratory. The experimental animals were maintained at a light-and-darkness cycle of 12 hours, a temperature of 20 to 24° C., a relative humidity of 40 to 60%, and free access to water and food.
# (§2) The degree of pain was assessed by withdrawal (avoidance response) using von Frey filaments. Mechanical stimuli were applied to the right hind paw by the use of an up-down method, and the lowest bending force showing avoidance response was defined as the paw withdrawal threshold (J Neurosci Methods, 1994; 53 (1): 55-63). First, the rats were placed in an acrylic box (13×25×13 cm^3) located on a wire mesh installed at a height of about 35 cm from the floor and stabilized for more than 20 minutes. Among von Frey filaments with various bending forces (0.008, 0.02, 0.04, 0.07, 0.16, 0.4, 0.6, 1.0, 1.4, 2.0, 4.0, 6.0, 8.0, 10.0, 15.0, 26.0, 60.0, 100, 180 and 300 g), the stimulus was started with 2.0 g of filament. The stimulus was applied to the extent of slightly bending in the direction perpendicular to the plantar surface, and the rats were stimulated with a filament with lower or higher bending force, depending on with and without reaction,
# This experiment was conducted to investigate the analgesic effects of compound treatment at two different doses (10 mg/kg and 30 mg/kg) in a diabetic peripheral neuropathic pain model of rats induced by streptozotocin (STZ).
# Diabetes was induced by 0.5 ml injection of streptozotocin (60 mg/kg) dissolved in citrate buffer (pH=6) into the tail vein of the rat. Animals were placed under a red lamp before injection and locked in a restraint device for administration.
# In a streptozotocin (STZ)-induced diabetic peripheral neuropathic pain rat model, diabetic peripheral neuropathy was induced between 14 and 24 days after injection of STZ through the tail blood vessel of the rat. Blood glucose levels (BGL) of all animals on day 3 of the test were used to determine whether diabetes was induced, and on day 14, animals showing signs of mechanical allodynia by von Frey test were tested for BGL on day 14 and 23 of the experiment (FIG. 1).
# After the experiment, all animals were euthanized with CO2.
# (§3) Each experimental group was compared with the negative control group by using one-way ANOVA and Tukey […] post-test (Prism® GraphPad).
# [2] = test system: taxol-induced peripheral neuropathy model (mechanical allodynia); assay: von Frey test of mechanical allodynia in taxol-induced peripheral neuropathy rat model; assay type: in vivo, rat (Sprague-Dawley)
# Procedure: as §1
# as §2, with “reaction.” for “reaction,”
# To induce peripheral neuropathy, 2 mg/kg of taxol—which is an anticancer agent commonly used for the treatment of solid cancers—was intraperitoneally (IP) administered at a dose of 0.5 ml/kg on days 1, 3, 5, 7 and 9. To confirm the induction of allodynia, von Frey test was used, and in the study only animals having […] or less of average pain threshold of hind paws were included.
# On day 13 of the experiment, only animals—in which allodynia was verified by von Frey test—were selected as experimental groups, Test Compounds (10 mg/kg and 30 mg/kg) and vehicle as the negative control were orally administered 2 hours before the pain test on day 13 and day 14. Morphine (5 mg/kg) as the positive control was administered 30 minutes prior to the pain test by intraperitoneal administration on day 13 and day 14 of the experiment. After the experiment, all animals were euthanized with CO2.
# as §3
compound,measurement,setting,value
NC(=O)O[C@@H](Cn1ncnn1)c1ccccc1Cl [Test Compound],pain reduction compared to the negative control,"[1]; 10 mg/kg, efficacy similar to 150 mg/kg of gabapentin",~75%
same,allodynia suppressive effect compared to vehicle,"[1]; day 14, 10 mg/kg PO",a tendency of allodynia suppressive effect
same,"inhibition of allodynia, pre-treatment vs. post-treatment","[1]; day 14, 10 mg/kg PO",the induction of allodynia was significantly inhibited
same,allodynia suppressive effect compared to vehicle,"[1]; day 14, 30 mg/kg PO",a tendency of allodynia suppressive effect
same,"inhibition of allodynia, pre-treatment vs. post-treatment","[1]; day 14, 30 mg/kg PO",the induction of allodynia was significantly inhibited
same,"mean bending force (paw withdrawal threshold, von Frey)","[1]; day 14, 2 hours after administration, 10 mg/kg PO, vehicle 34.50±6.61 g",46.09 ± 4.48 g
same,allodynia suppressive effect compared to vehicle,"[1]; day 24, 10 mg/kg PO",significant allodynia suppressive effect
same,"inhibition of allodynia, pre-treatment vs. post-treatment","[1]; day 24, 10 mg/kg PO",the induction of allodynia was significantly inhibited
same,allodynia suppressive effect compared to vehicle,"[1]; day 24, 30 mg/kg PO",significant allodynia suppressive effect
same,"inhibition of allodynia, pre-treatment vs. post-treatment","[1]; day 24, 30 mg/kg PO",the induction of allodynia was significantly inhibited
same,"mean bending force (paw withdrawal threshold, von Frey)","[1]; day 24, after administration, daily dosing from day 14, 10 mg/kg PO, vehicle 22.85±3.86 g",44.36 ± 3.63 g
same,bending force before administration,"[1]; after daily dosing from day 14, 10 mg/kg PO",25.18 ± 2.96 g
same,bending force before administration,"[1]; after daily dosing from day 14, 30 mg/kg PO",23.55 ± 2.52 g
same,inhibitory effect on the induction of allodynia compared to the vehicle-administration group,"[2]; day 13, 10 mg/kg orally, 2 hours before the pain test",a tendency to inhibit the induction of allodynia
same,inhibitory effect on the induction of allodynia compared to the vehicle-administration group,"[2]; day 13, 30 mg/kg orally, 2 hours before the pain test",a significant inhibitory effect on the induction of allodynia
same,inhibitory effect on the induction of allodynia compared to the vehicle-administration group,"[2]; day 14, 10 mg/kg orally, 2 hours before the pain test",a tendency to inhibit the induction of allodynia
same,inhibitory effect on the induction of allodynia compared to the vehicle-administration group,"[2]; day 14, 30 mg/kg orally, 2 hours before the pain test",a significant inhibitory effect on the induction of allodynia
"CN1CC[C@]23c4c5ccc(O)c4O[C@H]2[C@@H](O)C=C[C@H]3[C@H]1C5 [morphine, Morphine, reference compound]",inhibitory effect on the induction of allodynia compared to the vehicle-administration group,"[2]; day 13, 5 mg/kg IP, 30 minutes prior to the pain test",a significant inhibitory effect on the induction of allodynia
same,inhibitory effect on the induction of allodynia compared to the vehicle-administration group,"[2]; day 14, 5 mg/kg IP, 30 minutes prior to the pain test",a significant inhibitory effect on the induction of allodynia
"NCC1(CC(=O)O)CCCCC1 [gabapentin, reference compound]",allodynia suppressive effect compared to vehicle,"[1]; day 14, 150 mg/kg IP",no significant allodynia suppressive effect
same,"inhibition of allodynia, pre-treatment vs. post-treatment","[1]; day 14, 150 mg/kg IP",the induction of allodynia was significantly inhibited
same,"mean bending force (paw withdrawal threshold, von Frey)","[1]; day 14, 2 hours after administration, 150 mg/kg IP, vehicle 34.50±6.61 g",51.85 ± 4.91 g
same,allodynia suppressive effect compared to vehicle,"[1]; day 24, 150 mg/kg IP",significant allodynia suppressive effect
same,"inhibition of allodynia, pre-treatment vs. post-treatment","[1]; day 24, 150 mg/kg IP",the induction of allodynia was significantly inhibited
same,"mean bending force (paw withdrawal threshold, von Frey)","[1]; day 24, after administration, daily dosing from day 14, 150 mg/kg IP, vehicle 22.85±3.86 g",45.30 ± 4.63 g
same,bending force before administration,"[1]; after daily dosing from day 14, 150 mg/kg IP",25.50 ± 3.95 g
